{
  "source": "patent US8735398B2",
  "about": "(Bristol-Myers Squibb Company, priority 2009, dated 2014)",
  "data": [
    {"system": "HCV 1b genotype", "assay": "HCV replicon assay (HCV-neo replicon cells, wild-type)", "type": "cell-based, Hepatitis C virus", "conditions": "HCV 1b genotype replicon; class symbol; read-out: EC50 Range against HCV 1b", "how_it_was_run": "(§1)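 Inhibition was tested in replicon-bearing cells, both wild-type HCV-neo and lines with NS5A resistance substitutions, using the O'Boyle et al. 2005 replicon method or luciferase-reporter formats.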", "units": {"EC50": "nM"}, "values": [
      {"smiles": "CN(C)C(C(=O)N1CCC[C@H]1C(=O)Nc1ccc(-c2cnc(-c3ccc(NC(=O)[C@@H]4CCCN4C(=O)C(c4ccc(F)cc4F)N(C)C)cc3)o2)cc1)c1ccc(F)cc1F", "note": "(single isomer, unassigned) [Example D-6]", "EC50": "< 4.57"},
      {"smiles": "CC1(C(=O)N2CCC[C@H]2C(=O)Nc2ccc(-c3cnc(-c4ccc(NC(=O)[C@@H]5CCCN5C(=O)C5(C)CCC(=O)N5)cc4)o3)cc2)CCC(=O)N1", "note": "(stereo partly drawn) [Example D-24, (2S,2′S)-N,N′-(4,4′-(oxazole-2,5-diyl)bis(4,1-phenylene))bis(1-(2-methyl-5-oxopyrrolidine-2-carbonyl)pyrrolidine-2-carboxamide)]", "EC50": "1000 to 10000"}
    ]},
    {"system": "HCV 1b genotype", "assay": "HCV replicon assay (HCV-neo replicon cells, wild-type)", "type": "cell-based, Hepatitis C virus", "conditions": "HCV 1b genotype replicon; class symbols; read-out: EC50 Range against HCV 1b", "how_it_was_run": "as §1", "units": {"EC50": "nM"}, "values": [
      {"smiles": "CN(C)[C@H](C(=O)N1CCC[C@H]1C(=O)Nc1ccc(-c2cnc(-c3ccc(NC(=O)[C@@H]4CCCN4C(=O)[C@H]([C@@H](O)c4ccsc4)N(C)C)cc3)o2)cc1)[C@@H](O)c1ccsc1", "note": "[JR-15, (S,S,2S)-N,N′-(4,4′-(oxazole-2,5-diyl)bis(4,1-phenylene))bis(1-((2S,3S)-2-(dimethylamino)-3-hydroxy-3-(thiophen-3-yl)propanoyl)pyrrolidine-2-carboxamide)]", "EC50": "4.57 to 99"}
    ]},
    {"system": "HCV 1b genotype", "assay": "HCV replicon assay (HCV-neo replicon cells, wild-type)", "type": "cell-based, Hepatitis C virus", "conditions": "HCV 1b genotype replicon; read-out: EC50 1b", "how_it_was_run": "as §1", "units": {"EC50": "nM"}, "values": [
      {"smiles": "CC1(C(=O)N2CCC[C@H]2C(=O)Nc2ccc(-c3cnc(-c4ccc(NC(=O)[C@@H]5CCCN5C(=O)C5(C)CCC(=O)N5)cc4)o3)cc2)CCC(=O)N1", "note": "(stereo partly drawn) [Example D-24, (2S,2′S)-N,N′-(4,4′-(oxazole-2,5-diyl)bis(4,1-phenylene))bis(1-(2-methyl-5-oxopyrrolidine-2-carbonyl)pyrrolidine-2-carboxamide)]", "EC50": 5140}
    ]},
    {"system": "HCV 1b genotype", "assay": "HCV replicon assay (HCV-neo replicon cells, wild-type)", "type": "cell-based, Hepatitis C virus", "conditions": "Hepatitis C virus, HCV 1b genotype replicon; class symbol; read-out: EC50 Range against HCV 1b", "how_it_was_run": "as §1", "units": {"EC50": "nM"}, "values": [
      {"smiles": "C[C@H](NC(=O)[C@@](C)(O)c1ccccc1)C(=O)Nc1ccc(-c2cc(-c3ccc(NC(=O)[C@H](C)NC(=O)[C@@](C)(O)c4ccccc4)cc3)[nH]n2)cc1", "note": "[OL-45, (2S,2′S)-N,N′-(1H-pyrazole-3,5-diylbis(4,1-phenyleneimino((2S)-1-oxo-1,2-propanediyl)))bis(2-hydroxy-2-phenylpropanamide)]", "EC50": "< 4.57"},
      {"smiles": "O=C(Nc1ccc(-c2cnc(-c3ccc(NC(=O)[C@@H]4CCCN4C(=O)C4(Cc5ccccc5)CCCN4)cc3)o2)cc1)[C@@H]1CCCN1C(=O)C1(Cc2ccccc2)CCCN1", "note": "(stereo partly drawn) [Example D-37, (2S,2′S)-N,N′-(1,3-oxazole-2,5-diyldi-4,1-phenylene)bis(1-((2-benzyl-2-pyrrolidinyl)carbonyl)-2-pyrrolidinecarboxamide)]", "EC50": "1000 to 10000"},
      {"smiles": "O=C(Nc1ccc(-c2cnc(-c3ccc(NC(=O)[C@@H]4CCCN4C(=O)[C@@H](O)c4ccccc4)cc3)o2)cc1)[C@@H]1CCCN1C(=O)[C@@H](O)c1ccccc1", "note": "[JG-20, (2S,2′S)-N,N′-(1,3-oxazole-2,5-diyldi-4,1-phenylene)bis(1-((2S)-2-hydroxy-2-phenylacetyl)-2-pyrrolidinecarboxamide)]", "EC50": "4.57 to 99"},
      {"smiles": "O=C(Nc1ccc(-c2ccc(-c3ccc(NC(=O)[C@@H]4CCCN4C(=O)Cc4ccccc4)cc3)s2)cc1)[C@@H]1CCCN1C(=O)Cc1ccccc1", "note": "[OL-22, (2S,2′S)-N,N′-(2,5-thienediyldi-4,1-phenylene)bis(1-(phenylacetyl)-2-pyrrolidinecarboxamide)]", "EC50": "4.57 to 99"},
      {"smiles": "C[C@@H](C(=O)N1CCC[C@H]1C(=O)Nc1ccc(-c2ccc(-c3ccc(NC(=O)[C@@H]4CCCN4C(=O)[C@H](C)c4ccccc4)cc3)o2)cc1)c1ccccc1", "note": "[JG-53, (2S,2′S)-N,N′-(2,5-furandiyldi-4,1-phenylene)bis(1-((2R)-2-phenylpropanoyl)-2-pyrrolidinecarboxamide)]", "EC50": "4.57 to 99"},
      {"smiles": "CN(C)[C@@H](C(=O)N1CCCC1(C)C(=O)N1CCC[C@H]1C(=O)Nc1ccc(-c2cnc(-c3ccc(NC(=O)[C@@H]4CCCN4C(=O)C4(C)CCCN4C(=O)[C@@H](c4ccccc4)N(C)C)cc3)o2)cc1)c1ccccc1", "note": "(stereo partly drawn) [Example D-41, (2S,2′S)-N,N′-(1,3-oxazole-2,5-diyldi-4,1-phenylene)bis(1-((1-((2R)-2-(dimethylamino)-2-phenylacetyl)-2-methyl-2-pyrrolidinyl)carbonyl)-2-pyrrolidinecarboxamide)]", "EC50": "100 to 999"},
      {"smiles": "CO[C@@H](C(=O)N1CCC[C@H]1C(=O)Nc1ccc(-c2cc(-c3ccc(NC(=O)[C@@H]4CCCN4C(=O)[C@H](OC)c4ccccc4)cc3)[nH]n2)cc1)c1ccccc1", "note": "[JG-37, (2S,2′S)-N,N′-(1H-pyrazole-3,5-diyldi-4,1-phenylene)bis(1-((2R)-2-methoxy-2-phenylacetyl)-2-pyrrolidinecarboxamide)]", "EC50": "< 4.57"},
      {"smiles": "O=C(Nc1ccc(-c2cnc(-c3ccc(NC(=O)N[C@@H]4CCN(C(=O)[C@@H](O)c5ccccc5)C4)cc3)o2)cc1)N[C@@H]1CCN(C(=O)[C@@H](O)c2ccccc2)C1", "note": "[FY-6, N′,N′″-(1,3-oxazole-2,5-diyldi-4,1-phenylene)bis(1-((3R)-1-((2S)-2-hydroxy-2-phenylacetyl)-3-pyrrolidinyl)urea)]", "EC50": "100 to 999"},
      {"smiles": "CC(=O)N1CCC[C@H]1C(=O)Nc1ccc(-c2nc(-c3ccc(NC(=O)[C@@H]4C=CCN4C(=O)c4ccccc4)cc3)cs2)cc1", "note": "[Example D-53, (2S)-N-[4-[2-[4-[[[(2S)-1-acetyl-2-pyrrolidinyl]carbonyl]amino]phenyl]-4-thiazolyl]phenyl]-1-benzoyl-2,5-dihydro-1H-pyrrole-2-carboxamide]", "EC50": "1000 to 10000"},
      {"smiles": "COc1cccc2c(C(=O)N3CCC[C@H]3C(=O)Nc3ccc(-c4ccc(-c5ccc(NC(=O)[C@@H]6CCCN6C(=O)[C@@H](O)c6ccccc6)cc5)o4)cc3)nc(Cl)cc12", "note": "[JG-68, (2S)-1-((3-chloro-5-methoxy-1-isoquinolinyl)carbonyl)-N-(4-(5-(4-((((2S)-1-((2S)-2-hydroxy-2-phenylacetyl)-2-pyrrolidinyl)carbonyl)amino)phenyl)-2-furyl)phenyl)-2-pyrrolidinecarboxamide]", "EC50": "100 to 999"},
      {"smiles": "O=C(Nc1ccc(-c2ccc(-c3ccc(NC(=O)[C@@H]4CCCN4C(=O)OCc4ccccc4)cc3)o2)cc1)[C@@H]1CCCN1C(=O)OCc1ccccc1", "note": "[JG-54, dibenzyl (2S,2′S)-2,2′-(2,5-furandiylbis(4,1-phenylenecarbamoyl))di(1-pyrrolidinecarboxylate)]", "EC50": "100 to 999"},
      {"smiles": "COc1cccc2c(C(=O)N3CCC[C@H]3C(=O)Nc3ccc(-c4ccc(-c5ccc(NC(=O)[C@@H]6CCCN6C(=O)[C@@H](c6ccccc6)N(C)C)cc5)o4)cc3)nc(Cl)cc12", "note": "[JG-65, (2S)-1-((3-chloro-5-methoxy-1-isoquinolinyl)carbonyl)-N-(4-(5-(4-((((2S)-1-((2R)-2-(dimethylamino)-2-phenylacetyl)-2-pyrrolidinyl)carbonyl)amino)phenyl)-2-furyl)phenyl)-2-pyrrolidinecarboxamide]", "EC50": "< 4.57"},
      {"smiles": "C[C@H](NC(=O)OCc1ccccc1)C(=O)Nc1ccc(-c2nc[nH]c2-c2ccc(NC(=O)[C@H](C)NC(=O)OCc3ccccc3)cc2)cc1", "note": "[OL-8, [1H-imidazole-4,5-diylbis[4,1-phenyleneimino[(1S)-1-methyl-2-oxo-2,1-ethanediyl]]]bis-carbamic acid, bis(phenylmethyl) ester]", "EC50": "4.57 to 99"},
      {"smiles": "O=C(Nc1ccc(-c2nnc(-c3ccc(NC(=O)[C@@H]4CCCN4C(=O)C4CC4)cc3)o2)cc1)[C@@H]1CCCN1C(=O)C1CC1", "note": "[Example D-58, (2S,2′S)-N,N′-(1,3,4-oxadiazole-2,5-diyldi-4,1-phenylene)bis[1-(cyclopropylcarbonyl)-2-pyrrolidinecarboxamide]]", "EC50": "1000 to 10000"},
      {"smiles": "O=C(Nc1ccc(-c2nnc(-c3ccc(NC(=O)[C@@H]4CCCN4C(=O)c4cc(Cl)ccn4)cc3)o2)cc1)[C@@H]1CCCN1C(=O)c1cc(Cl)ccn1", "note": "[RK-27, (2S,2′S)-N,N′-(1,3,4-oxadiazole-2,5-diyldi-4,1-phenylene)bis(1-((4-chloro-2-pyridinyl)carbonyl)-2-pyrrolidinecarboxamide)]", "EC50": "100 to 999"}
    ]},
    {"system": "HCV 1b genotype", "assay": "HCV replicon assay (HCV-neo replicon cells, wild-type)", "type": "cell-based, Hepatitis C virus", "conditions": "Hepatitis C virus, HCV 1b genotype replicon; class symbols; read-out: EC50 Range against HCV 1b", "how_it_was_run": "as §1", "units": {"EC50": "nM"}, "values": [
      {"smiles": "CC(C(=O)N1CCC[C@H]1C(=O)Nc1ccc(-c2cnc(-c3ccc(NC(=O)[C@@H]4CCCN4C(=O)C(C)N4C(=O)C5C6CCC(C6)C5C4=O)cc3)o2)cc1)N1C(=O)C2C3CCC(C3)C2C1=O", "note": "(stereo partly drawn) [JR-18, (2S,2′S)-N,N′-(2,5-oxazolediyldi-4,1-phenylene)bis[1-[2-(octahydro-1,3-dioxo-4,7-methano-2H-isoindol-2-yl)-1-oxopropyl]-2-pyrrolidinecarboxamide]]", "EC50": "1000 to 10000"},
      {"smiles": "CC(C)(C)O[C@@H]1C[C@@H](C(=O)Nc2ccc(-c3cnc(-c4ccc(NC(=O)[C@@H]5C[C@@H](OC(C)(C)C)CN5C(=O)C(C)(C)C)cc4)o3)cc2)N(C(=O)C(C)(C)C)C1", "note": "[XY-63, (2S,4R,2′S,4′R)-N,N′-(1,3-oxazole-2,5-diyldi-4,1-phenylene)bis(4-tert-butoxy-1-(2,2-dimethylpropanoyl)-2-pyrrolidinecarboxamide)]", "EC50": "100 to 999"},
      {"smiles": "O=C(Nc1ccc(-c2cnc(-c3ccc(NC(=O)[C@@H]4CCCN4C(=O)c4cccs4)cc3)o2)cc1)[C@@H]1CCCN1C(=O)c1cccs1", "note": "[XY-1, (2S,2′S)-N,N′-(1,3-oxazole-2,5-diyldi-4,1-phenylene)bis(1-(2-thienylcarbonyl)-2-pyrrolidinecarboxamide)]", "EC50": "100 to 999"},
      {"smiles": "CN(C)CC(=O)N1CCC[C@H]1C(=O)Nc1ccc(-c2cnc(-c3ccc(NC(=O)[C@@H]4CCCN4C(=O)CN(C)C)cc3)o2)cc1", "note": "[XY-5, (2S,2′S)-N,N′-(1,3-oxazole-2,5-diyldi-4,1-phenylene)bis(1-((dimethylamino)acetyl)-2-pyrrolidinecarboxamide)]", "EC50": "1000 to 10000"},
      {"smiles": "Cc1noc(C)c1C(=O)N1C[C@H](O)C[C@H]1C(=O)Nc1ccc(-c2cnc(-c3ccc(NC(=O)[C@@H]4C[C@@H](O)CN4C(=O)c4c(C)noc4C)cc3)o2)cc1", "note": "[XY-53, (2S,4R,2′S,4′R)-N,N′-(1,3-oxazole-2,5-diyldi-4,1-phenylene)bis(1-((3,5-dimethyl-4-isoxazolyl)carbonyl)-4-hydroxy-2-pyrrolidinecarboxamide)]", "EC50": "1000 to 10000"},
      {"smiles": "O=C(Nc1ccc(-c2cnc(-c3ccc(NC(=O)[C@@H]4C[C@@H](O)CN4C(=O)c4cccs4)cc3)o2)cc1)[C@@H]1C[C@@H](O)CN1C(=O)c1cccs1", "note": "[XY-54, (2S,4R,2′S,4′R)-N,N′-(1,3-oxazole-2,5-diyldi-4,1-phenylene)bis(4-hydroxy-1-(2-thienylcarbonyl)-2-pyrrolidinecarboxamide)]", "EC50": "1000 to 10000"},
      {"smiles": "O=C(Nc1ccc(-c2cnc(-c3ccc(NC(=O)[C@@H]4CCCN4C(=O)C4CCCCC4)cc3)o2)cc1)[C@@H]1CCCN1C(=O)C1CCCCC1", "note": "[XY-15, (2S,2′S)-N,N′-(1,3-oxazole-2,5-diyldi-4,1-phenylene)bis(1-(cyclohexylcarbonyl)-2-pyrrolidinecarboxamide)]", "EC50": "100 to 999"}
    ]},
    {"system": "HCV 1b genotype", "assay": "HCV replicon assay (HCV-neo replicon cells, wild-type)", "type": "cell-based, Hepatitis C virus", "conditions": "Hepatitis C virus, HCV 1b genotype replicon; read-out: EC50 1b", "how_it_was_run": "as §1", "units": {"EC50": "nM"}, "values": [
      {"smiles": "CC(=O)N1CCC[C@H]1C(=O)Nc1ccc(-c2nc(-c3ccc(NC(=O)[C@@H]4C=CCN4C(=O)c4ccccc4)cc3)cs2)cc1", "note": "[Example D-53, (2S)-N-[4-[2-[4-[[[(2S)-1-acetyl-2-pyrrolidinyl]carbonyl]amino]phenyl]-4-thiazolyl]phenyl]-1-benzoyl-2,5-dihydro-1H-pyrrole-2-carboxamide]", "EC50": 1130},
      {"smiles": "Cc1noc(C)c1C(=O)N1C[C@H](O)C[C@H]1C(=O)Nc1ccc(-c2cnc(-c3ccc(NC(=O)[C@@H]4C[C@@H](O)CN4C(=O)c4c(C)noc4C)cc3)o2)cc1", "note": "[XY-53, (2S,4R,2′S,4′R)-N,N′-(1,3-oxazole-2,5-diyldi-4,1-phenylene)bis(1-((3,5-dimethyl-4-isoxazolyl)carbonyl)-4-hydroxy-2-pyrrolidinecarboxamide)]", "EC50": 8060},
      {"smiles": "O=C(Nc1ccc(-c2nnc(-c3ccc(NC(=O)[C@@H]4CCCN4C(=O)C4CC4)cc3)o2)cc1)[C@@H]1CCCN1C(=O)C1CC1", "note": "[Example D-58, (2S,2′S)-N,N′-(1,3,4-oxadiazole-2,5-diyldi-4,1-phenylene)bis[1-(cyclopropylcarbonyl)-2-pyrrolidinecarboxamide]]", "EC50": 2210}
    ]}
  ]
}
